Data from patent publication US20260201006A1, “COACERVATE FORMULATIONS OF CXCR-ACTIVATING PEPTIDES FOR CONTROLLED RELEASE IN OPHTHALMIC AND TOPICAL TREATMENTS” (University of Pittsburgh - Of the Commonwealth System of …, priority 2022, published 2026).
Ends that are not written are not given here.

Assays:
[1] = system: environmental dry eye model; test: Schirmer tear test (STT) in rabbit environmental dry eye model; format: in vivo, New Zealand white rabbits; conditions: rabbits, 21 days treatment
Procedure: The 22-mer CXCL10p peptide (OH-[…]-NH2; SEQ ID NO: 5) was manufactured by PolyPeptide Inc. (San Diego, CA, USA) and purified to >95% purity as a lyophilized powder. The peptide was delivered in three different formulations. For subconjunctival injection, 3 μg of the peptide was dissolved in 100 μl of sterile PBS for weekly injections. For eye drops, 10 μg of the peptide was dissolved in 50 μl of sterile PBS for twice daily drops (BID). For the slow-release formulation, 10 μg of the peptide was dissolved in 50 μl of coacervate for BID inoculation. The control was 50 μl of sterile PBS applied BID. The coacervate is a heparin and PEAD (1:3.6) mixture with each component at a 10 mg/mL concentration in water. The CXCL10p peptide was added at a 1:10 dilution in PBS to the final concentration.
The environmental dry eye model was used to test the CXCL10p peptide. Female New Zealand white rabbits (8 per group) were used at 125-175 days old (weighing 3-5 kg) at the time of induction. For induction of dry eye, all animals were dosed with atropine sulfate (1%) in both eyes (OU) twice daily (BID) for 2-3 weeks prior to test article administration to induce KCS. In addition, humidity in the animals' housing room was maintained at ~20% throughout the study to promote eye dryness. Non-responder animals were removed from the study at the end of the induction phase. […]

MUC5AC transcripts = test: Goblet cell study: qRT-PCR for MUC5AC transcripts in HCjE cells; format: cell-based, human; conditions: 200 ng/ml or 2000 ng/ml, relative to vehicle only
Procedure: (§1) HCjE cells were maintained in complete keratinocyte serum free medium (KSFM; Invitrogen, Carlsbad, CA) in petri dishes coated with type 1 collagen. When the HCjE cells reached 50% confluence, the culture medium was replaced with growth medium (1:1 DMEM/F12:complete KSFM). When cells reached 100% confluence, the cells were fed with stratification medium (DMEM/F12+10% FBS) with or without the CXCL10p peptide (either 200 ng/ml or 2000 ng/ml). Control cells were fed with the medium supplemented with an equivalent volume of the vehicle (PBS) in which the peptide was dissolved. This medium with or without peptide was replaced every other day for 14 days, after which the cells were either stained with periodic acid-Schiff's (PAS) reagent following the standard protocol, or subjected to total RNA isolation, and qRT-PCR for MUC5AC transcripts with TATA-box binding protein (TBP) as the endogenous control.
Control and CXCR3 activating peptide-treated HCjE cells are also examined for expression of MUC5AC transcripts by qRT-PCR.

HCjE cells = test: Goblet cell study: PAS staining of stratified HCjE cells; format: cell-based, human; conditions: 200 ng/ml or 2000 ng/ml, compared to vehicle-treated HCjE cells
Procedure: as §1
To further examine the effects of the CXCR3 activating peptide on goblet cell functioning in vitro, stratified HCjE cells are treated with 200 ng/ml CXCR3 activating peptide, 2000 ng/ml CXCR3 activating peptide, or vehicle. Cells are then stained with periodic acid-Schiff's (PAS) reagent.

[2] = system: TNFα mRNA in human conjunctival epithelial (HCjE) cells; test: TNFα-mediated inflammation in HCjE cells (qRT-PCR); format: cell-based
Procedure: Primary human conjunctival epithelial (HCjE) cells were seeded at 40,000 cells per well in a 96 well flat bottom plate. After overnight adhesion in Keratinocyte-Serum Free Media (cK-SFM), the cells were washed and exposed to starvation media (SFM) for a further 24 hours. At this time the cells were exposed to TNFα (5 ng/ml) in the presence or absence of CXCL10p peptide (200 ng/ml). After 4 hours, the cells were harvested and tested for TNFα mRNA levels with GAPDH mRNA as the control for equalization.

With “OH-PESKAIKNLLKAVHKEMSKRSP-NH2 [CXCL10p peptide]” as the substance, how does the “amount of aqueous tear (STT)” value [1] read?
The value was “uncorrected”.

And the “levels of MUC5AC transcripts” value (MUC5AC transcripts)?
The value was “increased levels of MUC5AC transcripts”.

And the “frequency of intense magenta stained cell clusters (goblet cell clusters)” value (HCjE cells)?
The value was “increase in the frequency”.

And the “staining with PAS reagent (proteoglycan content)” value (HCjE cells)?
Its value is “more intense staining with PAS reagent”.

And the “reduction of TNFα mRNA levels” value ([2]; HCjE cells, TNFα 5 ng/ml, peptide 200 ng/ml, 4 hours)?
Its value is “approximately one quarter”.

What about the “TNFα mRNA levels” value ([2]; HCjE challenged with TNFα, concurrent exposure to peptide) of the same substance?
The value was “dampened the TNFα mRNA levels in a reproducible and statistically significant manner”.
